Assay results: ChEMBL document CHEMBL3046848, “Synthesis and biological evaluation of novel series of thieno[2,3-d]pyrimidine derivatives as anticancer and antimicrobial agents” (2013)

Legend:
Assay type in all cases: functional
NCI-H226 = assay: Anticancer activity against Homo sapiens (human) NCI-H226 cells after 48 hr by SRB assay; details: NCI-H226, 48 h
NCI/ADR-RES = assay: Anticancer activity against Homo sapiens (human) NCI/ADR-RES cells after 48 hr by SRB assay
786-0 = assay: Anticancer activity against Homo sapiens (human) 786-0 cells after 48 hr by SRB assay; details: 786-0, 48 h
HCT-15 = assay: Growth inhibition of Homo sapiens (human) HCT15 cells at 10 uM after 48 hr by SRB assay; details: HCT-15, 48 h, read-out: GI
PC-3 = assay: Anticancer activity against Homo sapiens (human) PC3 cells after 48 hr by SRB assay; details: PC-3, 48 h
Pseudomonas aeruginosa = assay: Antimicrobial activity against Pseudomonas aeruginosa ATCC9027 assessed as diameter of growth inhibition zone at 1 mg/ml after 24 hr by agar cup diffusion method; details: ATCC9027, 24 h, read-out: IZ
SF-268 = assay: Growth inhibition of Homo sapiens (human) SF268 cells at 10 uM after 48 hr by SRB assay; details: SF-268, 48 h, read-out: GI
HT-29 = assay: Anticancer activity against Homo sapiens (human) HT-29 cells after 48 hr by SRB assay; details: HT-29, 48 h
ACHN = assay: Anticancer activity against Homo sapiens (human) ACHN cells after 48 hr by SRB assay
BT-549 = assay: Growth inhibition of Homo sapiens (human) BT549 cells at 10 uM after 48 hr by SRB assay; details: BT-549, 48 h, read-out: GI
T47D = assay: Growth inhibition of Homo sapiens (human) T47D cells at 10 uM after 48 hr by SRB assay; details: read-out: GI
SR = assay: Anticancer activity against Homo sapiens (human) SR cells after 48 hr by SRB assay
SF-539 = assay: Growth inhibition of Homo sapiens (human) SF539 cells at 10 uM after 48 hr by SRB assay; details: SF-539, 48 h, read-out: GI
HOP-62 = assay: Growth inhibition of Homo sapiens (human) HOP62 cells at 10 uM after 48 hr by SRB assay; details: HOP-62, 48 h, read-out: GI
NCI-H322M = assay: Anticancer activity against Homo sapiens (human) NCI-H322M cells after 48 hr by SRB assay
SNB-75 = assay: Anticancer activity against Homo sapiens (human) SNB75 cells after 48 hr by SRB assay; details: SNB-75, 48 h
SK-MEL-2 = assay: Anticancer activity against Homo sapiens (human) SK-MEL-2 cells after 48 hr by SRB assay; details: SK-MEL-2, 48 h
SN12C = assay: Anticancer activity against Homo sapiens (human) SN12C cells after 48 hr by SRB assay
MDA-MB-435 [1] = assay: Growth inhibition of Homo sapiens (human) MDA-MB-435 cells at 10 uM after 48 hr by SRB assay; details: MDA-MB-435, 48 h, read-out: GI
M14 = assay: Anticancer activity against Homo sapiens (human) M14 cells after 48 hr by SRB assay; details: M14, 48 h
K562 = assay: Anticancer activity against Homo sapiens (human) K562 cells after 48 hr by SRB assay; details: K562, 48 h
MDA-MB-435 [2] = assay: Anticancer activity against Homo sapiens (human) MDA-MB-435 cells after 48 hr by SRB assay; details: MDA-MB-435, 48 h
HOP-92 = assay: Growth inhibition of Homo sapiens (human) HOP92 cells at 10 uM after 48 hr by SRB assay; details: HOP-92, 48 h, read-out: GI
HCC 2998 = assay: Growth inhibition of Homo sapiens (human) HCC2998 cells at 10 uM after 48 hr by SRB assay; details: HCC 2998, 48 h, read-out: GI
OVCAR-5 = assay: Anticancer activity against Homo sapiens (human) OVCAR5 cells after 48 hr by SRB assay; details: OVCAR-5, 48 h
OVCAR-4 = assay: Growth inhibition of Homo sapiens (human) OVCAR4 cells at 10 uM after 48 hr by SRB assay; details: OVCAR-4, 48 h, read-out: GI
RPMI-8226 = assay: Growth inhibition of Homo sapiens (human) RPMI8226 cells at 10 uM after 48 hr by SRB assay; details: RPMI-8226, 48 h, read-out: GI
SW-620 = assay: Anticancer activity against Homo sapiens (human) SW620 cells after 48 hr by SRB assay; details: SW-620, 48 h
UO-31 = assay: Growth inhibition of Homo sapiens (human) UO31 cells at 10 uM after 48 hr by SRB assay; details: UO-31, 48 h, read-out: GI
SK-MEL-28 = assay: Anticancer activity against Homo sapiens (human) SK-MEL-28 cells after 48 hr by SRB assay; details: SK-MEL-28, 48 h
A549 = assay: Growth inhibition of Homo sapiens (human) A549/ATCC cells at 10 uM after 48 hr by SRB assay; details: A549, 48 h, read-out: GI
MCF7 = assay: Anticancer activity against Homo sapiens (human) MCF7 cells after 48 hr by SRB assay; details: MCF7, 48 h
CCRF-CEM = assay: Anticancer activity against Homo sapiens (human) CCRF-CEM cells after 48 hr by SRB assay
[3] = read-out: LC50 (the source's name)

Cc1c(C(N)=O)sc2nc(C)n(/N=c3\scc(-c4ccccc4)n3Cc3ccccc3)c(=O)c12
GI50 (NCI-H226): 3.72 µM
TGI (NCI-H226): 67.9 µM
CC50 (NCI-H226; [3]): > 100 µM
GI50 (NCI/ADR-RES): 2.9 µM
TGI (NCI/ADR-RES): 29.2 µM
CC50 (NCI/ADR-RES; [3]): > 100 µM
GI50 (786-0): 3.82 µM
TGI (786-0): > 100 µM
CC50 (786-0; [3]): > 100 µM
inhibition of growth at 10 µM (HCT-15): 85.1%
GI50 (PC-3): 2.15 µM
TGI (PC-3): 8.31 µM
CC50 (PC-3; [3]): > 100 µM
zone of inhibition at 1000 µg/mL (Pseudomonas aeruginosa): 17 mm
inhibition of growth at 10 µM (SF-268): 78.7%
GI50 (HT-29): 3.04 µM
TGI (HT-29): > 100 µM
CC50 (HT-29; [3]): > 100 µM
GI50 (ACHN): 2.86 µM
TGI (ACHN): > 100 µM
CC50 (ACHN; [3]): > 100 µM
inhibition of growth at 10 µM (BT-549): 107%
inhibition of growth at 10 µM (T47D): 65.3%
GI50 (SR): 5.74 µM
TGI (SR): > 100 µM
CC50 (SR; [3]): > 100 µM
inhibition of growth at 10 µM (SF-539): 77.8%
inhibition of growth at 10 µM (HOP-62): 75.8%
GI50 (NCI-H322M): 3.71 µM
TGI (NCI-H322M): > 100 µM
CC50 (NCI-H322M; [3]): > 100 µM
GI50 (SNB-75): 2.8 µM
TGI (SNB-75): > 100 µM
CC50 (SNB-75; [3]): > 100 µM
GI50 (SK-MEL-2): 3.89 µM
TGI (SK-MEL-2): 86.6 µM
CC50 (SK-MEL-2; [3]): > 100 µM
GI50 (SN12C): 3.84 µM
TGI (SN12C): > 100 µM
CC50 (SN12C; [3]): > 100 µM
inhibition of growth at 10 µM (MDA-MB-435 [1]): 87.8%
GI50 (M14): 3.88 µM
TGI (M14): 84.5 µM
CC50 (M14; [3]): > 100 µM
GI50 (K562): 8.89 µM
TGI (K562): > 100 µM
CC50 (K562; [3]): > 100 µM
GI50 (MDA-MB-435 [2]): 2.89 µM
TGI (MDA-MB-435 [2]): 12.5 µM
CC50 (MDA-MB-435 [2]; [3]): > 100 µM
inhibition of growth at 10 µM (HOP-92): 119%
inhibition of growth at 10 µM (HCC 2998): 42.9%
GI50 (OVCAR-5): 4.33 µM
TGI (OVCAR-5): > 100 µM
CC50 (OVCAR-5; [3]): > 100 µM
inhibition of growth at 10 µM (OVCAR-4): 66.5%
inhibition of growth at 10 µM (RPMI-8226): 110%
GI50 (SW-620): 3.16 µM
TGI (SW-620): > 100 µM
CC50 (SW-620; [3]): > 100 µM
inhibition of growth at 10 µM (UO-31): 95.9%
GI50 (SK-MEL-28): 3.56 µM
TGI (SK-MEL-28): > 100 µM
CC50 (SK-MEL-28; [3]): > 100 µM
inhibition of growth at 10 µM (A549): 100%
GI50 (MCF7): 2.92 µM
TGI (MCF7): > 100 µM
CC50 (MCF7; [3]): > 100 µM
GI50 (CCRF-CEM): 34.2 µM
TGI (CCRF-CEM): > 100 µM
CC50 (CCRF-CEM; [3]): > 100 µM
